Test results published in patent US9540649B2, “Method for opening tight junctions” (The Provost, Fellows and Scholars of the College of the …, priority 2007, dated 2017).
Entries after “also recorded” stand apart in the source; their conditions may differ.

Experiments:
[1] = system: claudin-5; assay: Western blot analysis of claudin-5 expression in brain after hydrodynamic tail vein delivery of siRNA; assay type: in vivo, C57/Bl6 mice
Experimental: Rapid high pressure, high volume tail vein injections were carried out (Kiang et al., 2005). Wild type C57/Bl6 mice of weight 20-30 g were individually restrained inside a 60-ml volume plastic tube. The protruding tail was warmed for 5 minutes prior to injection under a 60-W lamp and the tail vein clearly visualized by illumination from below. 20 micrograms of targeting siRNA, or non-targeting siRNA made up with PBS to a volume in mls of 10% of the body weight in grams or PBS alone, was injected into the tail vein at a rate of 1 ml/sec using a 26-gauge (26 G 3/8) needle. After 24, 48, 72 hours and 1 week, protein was isolated from total brain tissue by crushing brains to a fine powder in liquid N2 and subsequently using lysis buffer containing 62.5 mM Tris, 2% SDS, 10 mM Dithiothreitol, 10 μl protease inhibitor cocktail/100 ml (Sigma Aldrich, Ireland). The homogenate was centrifuged at 10,000 g for 20 mins @4° C., and the supernatant was removed for claudin-5 analysis.
Briefly, protein samples were separated on 12% SDS-PAGE gels and transferred to nitrocellulose membrane overnight using a wet electroblot apparatus. Efficiency of protein transfer was determined using Ponceau-S solution (Sigma Aldrich, Ireland). Non-specific binding sites were blocked by incubating the membrane at room temperature with 5% non-fat dry skimmed milk in Tris-buffered saline (TBS) (0.05 M Tris, 150 mM NaCl, pH 7.5) for 2 hours. Membranes were briefly washed with TBS, and incubated with polyclonal rabbit anti-claudin-5 (Zymed Laboratories, San Francisco, Calif.) (1:500) or polyclonal rabbit anti-β-actin (Abcam, Cambridge, UK) (1:1000). Antibodies were incubated with membranes overnight at 4° C. Membranes were washed with TBS, and incubated with a secondary anti-rabbit (IgG) antibody with Horse-Radish-Peroxidase (HRP) conjugates (1:2500), for 3 hours at room temperature. Immune complexes were detected using enhanced chemiluminescence (ECL).

[2] = system: occludin; assay: Occludin expression following suppression of claudin-5 (Western blot, immunohistochemistry); assay type: in vivo, C57/Bl6 mice; conditions: all time points post-delivery of claudin-5 siRNA
[3] = system: BBB; assay: Assessment of BBB integrity by perfusion of biotinylated tracer EZ-Link Sulfo-NHS-Biotin (443 Da); assay type: in vivo, C57/Bl6 mice
Experimental: Following RNAi-mediated ablation of transcripts encoding claudin-5, a tracer molecule was used to determine the extent to which the TJ's of the BBB had been affected. The biotinylated reagent EZ-Link™ Sulfo-NHS-Biotin (Pierce) (1 ml/g body weight of 2 mg/ml EZ-Link™ Sulfo-NHS-Biotin, 443 Da) was perfused for 5 minutes through the left ventricle of mice 24, 48, 72 hours and 1 week post-hydrodynamic delivery of claudin-5 siRNA. Following perfusion with the tracer molecule, the whole brain was dissected and placed in 4% PFA pH 7.4 overnight at 4° C. and subsequently washed 4×15 mins with PBS. Following cryoprotection with sucrose, frozen sections were cut on a cryostat at −20° C. and incubated with streptavidin conjugated to the fluorescent probe FITC. This allowed for the assessment of leakage of the biotinylated reagent of molecular weight 443 Da from the microvessels of the brain. All sections were counterstained with 4′,6-diamidine-2-phenylindole-dihydrochloride (DAPI; Sigma Aldrich, Ireland) for 30 seconds at a dilution of 1:5000 of a stock 1 mg/ml solution, and sections were visualized using an Olympus FluoView™ FV1000 Confocal microscope.

[4] = system: BBB; assay: BBB permeability to Hoechst H33342 (562 Da) and FD-4 (4,400 Da) co-perfusion, brain sections; assay type: in vivo, C57/Bl6 mice; conditions: for extravasation of FD-4 (4,400 Da) into brain parenchyma: any time point following siRNA injection
Experimental: (§1) In order to determine the permeability of brain and retinal microvessels to a molecule of 562 Daltons, mice were perfused through the left ventricle with 500 μl/g body weight of PBS containing 100 μg/ml Hoechst stain H33342 (Sigma Aldrich, Ireland) and 1 mg/ml FITC-Dextran-4 (FD-4) 24, 48, 72 hours and 1 week post-hydrodynamic delivery of claudin-5 siRNA. Following perfusion, the whole brain was dissected and placed in 4% PFA pH 7.4 overnight at 4° C. and subsequently washed 4×15 mins with PBS. Brains were then embedded in 4% agarose and 50 μm sections were cut using a Vibratome®. Whole eyes were removed and fixed with 4% PFA, and following washing with PBS and cryoprotection using a sucrose gradient, 12 μm cryosections were cut using a cryostat. Following analysis of retinal cryosections with an Olympus FluoView™ FV1000 Confocal microscope, images were oriented correctly using Adobe® Photoshop®.

[5] = system: BRB; assay: BRB permeability to Hoechst (562 Da), retinal cryosections and flatmounts; assay type: in vivo, C57/Bl6 mice
Experimental: as §1

[6] = system: iBRB; assay: MRI analysis of Gd-DTPA diffusion across the iBRB (eye); assay type: in vivo, mice; conditions: 48 hours post-injection
[7] = system: endothelial cells of heart, liver, lung and kidney; assay: Endothelial cell morphology of major organs (Griffonia simplicifolia-isolectin B4 staining); assay type: in vivo, mouse; conditions: all time points; vs control groups
Experimental: Following hydrodynamic injection of siRNA targeting claudin-5, cryosections were prepared of all the major organs, the heart, liver, lung and kidney. Sections were incubated overnight at 4° C. with HRP-conjugated Griffonia simplicifolia-isolectin B4 in order to stain the endothelial cells of organs.

[8] = system: claudin-5; assay: Claudin-5 expression in retina after siRNA injection (Western blot, retinal flatmounts); assay type: in vivo, mice
[9] = listed as siRNA targeting claudin-5

Question: Which results are given for “claudin-5 siRNA: siRNA, sense CGUUGGAAAUUCUGGGUCUUU (SEQ ID NO: 1), antisense AGACCCAGAAUUUCCAACGUU (SEQ ID NO: 2) (listed as RNA, chemistry not given here)”?
Answer: claudin-5 expression, Western blot, brain ([1]; 24 hours post delivery of 20 μg siRNA, vs un-injected, PBS and non-targeting siRNA controls): decrease in expression; also recorded: markedly decreased; claudin-5 expression, Western blot, brain ([1]; 48 hours post delivery of 20 μg siRNA, vs controls): suppression was also evident; claudin-5 expression, Western blot, brain ([1]; 48 hours post delivery of 20 μg siRNA, vs controls, listed as CLDN5 siRNA): significant decreases in Claudin-5 expression; claudin-5 expression, Western blot, brain ([1]; 48 hours post delivery of 20 μg siRNA, vs controls, listed as siRNA targeting claudin-5): maximum suppression; claudin-5 expression, Western blot, brain ([1]; 72 hours post delivery of 20 μg siRNA, vs controls, listed as CLDN5 siRNA): levels of expression appeared similar to those observed in the control groups; time at which claudin-5 expression returns to normal, Western data ([1]; after injection): returning to normal between 72 hours and 1 week; occludin expression, Western blot [2]: remain un-changed at all time points; BBB permeability to EZ-Link Sulfo-NHS-Biotin (443 Da) ([3]; 1 week post-injection): no evidence for BBB compromise; also recorded: failed to deposit in the parenchyma; also recorded: did not allow for the passage; also recorded: no longer crossed the BBB; BBB permeability to EZ-Link Sulfo-NHS-Biotin (443 Da) ([3]; 1 week post-injection, listed as siRNA targeting claudin-5): did not deposit in the parenchyma; BBB permeability to EZ-Link Sulfo-NHS-Biotin (443 Da) ([3]; 24 hours post-injection, perfusion 5 minutes, listed as siRNA targeting claudin-5): diffuse and outside of the microvessels; also recorded: increase in permeability; also recorded: infiltration of the molecule into the parenchyma of the brain; BBB permeability to EZ-Link Sulfo-NHS-Biotin (443 Da) ([3]; 48 hours post-injection): abundant in the brain parenchyma; BBB permeability to EZ-Link Sulfo-NHS-Biotin (443 Da) ([3]; 48 hours post-injection, listed as siRNA targeting claudin-5): very distinct; also recorded: detected in abundance; BBB permeability to EZ-Link Sulfo-NHS-Biotin (443 Da) ([3]; 72 hours post-delivery): permeability was still evident; also recorded: still evidenced; BBB permeability to EZ-Link Sulfo-NHS-Biotin (443 Da) ([3]; 72 hours post-delivery, listed as siRNA targeting claudin-5): significant compromise in barrier function; also recorded: crossed the BBB; extravasation of Hoechst H33342 (562 Da) from brain microvessels ([4]; 24 hours and 48 hours post delivery): distinct staining of nuclei in surrounding neural and glial cells; extravasation of Hoechst H33342 (562 Da) from brain microvessels ([4]; 24 hours and 48 hours post delivery, listed as siRNA targeting claudin-5): extravasation of Hoechsct was observed; also recorded: crossed the BBB; extravasation of Hoechst H33342 (562 Da) from brain microvessels ([4]; 72 hours or 1 week post-injection): not evident; extravasation of FD-4 (4,400 Da) into brain parenchyma [4]: No extravasation of FD-4; extravasation of FD-4 (4,400 Da) into brain parenchyma [4, 9]: no extravasation was evident; also recorded: failed to do so; Hoechst staining in retinal flatmounts ([5]; 24 and 48 hours post injection): stain extravascular nuclei; extravasation of Hoechst in 12 μm retinal cryosections ([5]; 24 hours post delivery): Inner Nuclear Layer (INL) appearing stained; extravasation of Hoechst in 12 μm retinal cryosections ([5]; 48 hours post delivery): distinct Outer Nuclear Layer (ONL) staining; extravasation of Hoechst H33342 from retinal microvessels, retinal cryosections ([5]; up to 48 hour post-delivery): staining the Inner Nuclear Layer (INL) and Outer Nuclear Layer (ONL) of the retina; Gd-DTPA contrasting in the eye / iBRB integrity, MRI [6]: Strong contrasting; Gd-DTPA contrasting in the eye / iBRB integrity, MRI [6, 9]: iBRB was compromised; endothelial cell morphology in liver, lung, kidney and heart [7]: appeared similar at all time points and in all major organs; claudin-5 expression in retinal flatmounts, immunohistochemistry ([8]; 24, 48 and 72 hours post injection, vs non-targeting siRNA): decreased localisation of claudin-5 at the periphery of endothelial cells; claudin-5 expression in retinal protein lysates, Western blot ([8]; 48 hours post injection): decreased expression
